Like-named read-outs stand apart in the source and are kept apart here.
Legend:
mice = mice (males and females), cited from earlier work
blood plasma [1] = experiment: Measurement of APTT (activated partial thromboplastin time); assay type: biochemical, rat; conditions: for APTT activity: concentration of standard heparin giving APTT 100 seconds as percentage of that of the substance, standard heparin = 100; for APTT (3 μg/ml): final concentration 3 μg/ml
Protocol: For the measurement of APTT, blood was collected from rat lower aorta by 3.2% citric acid {fraction (1/10 )} volume and centrifuged at 1,000×g for 10 minutes, and 100 μl of the thus obtained blood plasma and 100 μl of each sample having varied concentration were put into a measuring cup and incubated at 37° C. for 1 minute. Thereafter, 100 μl of Actin (trade name, Yoshitomi Pharmaceutical) which had been incubated in advance at 37° C. was added thereto, and the incubation was continued for 2 minutes. Next, 100 μl of 0.02 M CaCl2 solution which had been incubated in advance at 37° C. was added thereto, and the period of time from this point until generation of coagulation was measured using a blood coagulation automatic measuring apparatus (KC-10A: manufactured by Amelung). Also, in Table 2, the final concentration of each of the inventive substance and standard heparin in the medium, by which the APTT value becomes 100 seconds, was obtained to calculate the concentration of the standard heparin as percentage based on the concentration of the inventive substance, and this value (%) was used as the APTT activity of the inventive substance.

[2] = test system: primary culture cells of Wistar rat cerebral cortex cells; experiment: Measurement of neurite outgrowth promoting activity; assay type: cell-based; design: neurite outgrowth promoting activity (in words, FIG. 3): dose or concentration left out as unconfirmed; conditions: for Neurite outgrowth promoting activity: 10 μg/ml, ratio of cerebral cortex cell masses showing neurite outgrowth after 2 days of culturing
Protocol: A fetus was aseptically excised from a Wistar rat in the 17th day of pregnancy (purchased from Japan SLC). The brain was excised from the fetus, and the cerebral cortex was obtained by removing the cerebellum, mid-brain, inter-brain and meninges in an un-sulfated DMEM medium (prepared by dissolving 500 mg of anhydrous CaCl2, 0.25 mg of Fe(NO)3/9H2O, 1,000 mg of KCl, 193.3 mg of MgCl2, 9,250 mg of NaHCO3, 312.5 mg of NaH2PO4/H2O, 37.5 mg of Phenol Red, 275 mg of sodium pyruvate, 100 ml of MEM amino acid (No. 11130-051, manufactured by Gibco), 75 mg of L-glycine, 1,460 mg of L-glutamine, 105 mg of L-serine, 100 ml of MEM vitamin solution (No. 11120-052, manufactured by Gibco), 15,150 mg of NaCl and 11,250 mg of D-glucose in 2.5 L of sterilized distilled water and adjusting the solution to pH 7.2).
Cerebral cortexes obtained from 10 animals were finely sliced 100 times in both lengthwise and crosswise with a safety razor on a 60 mm dish, and the cerebral cortex slices were mixed twice with 10 ml of phosphate-buffered saline (PBS) and dispensed into a 50 ml capacity Falcon tube to which was subsequently added 11 ml of the un-sulfated DMEM medium. While uniformly suspending by gentle shaking, this was dispensed in 0.5 ml portions into wells of a 24 well plate (bottom area, 2 cm^2) which had been coated with 0.1% polyethylene imine. After 2 hours of the commencement of culturing, 100 μl of each sample was taken out, and 50 μl of PBS containing each substance to be tested having 10 time concentration of its final concentration and 50 μl of 400 μM chloric acid/un-sulfated DMEM medium were added. After 2 days of culturing at 37° C. under 5% CO2, 500 μl of 1% glutaraldehyde/PBS was gently over-layered to carry out 20 minutes of fixation at room temperature. After removing the supernatant by suction, 0.5 ml of PBS was slowly over-layered and then immediately removed by suction. A 20% Giemsa solution/potassium phosphate buffer was over-layered and allowed to stand for 2 hours at room temperature. After removing the supernatant by suction, 0.5 ml of PBS was added.

blood plasma [3] = experiment: Measurement of TT (thrombin time); assay type: biochemical, rat; conditions: for TT activity: concentration of standard heparin giving TT 100 seconds as percentage of that of the substance, standard heparin = 100; for TT activity/APTT activity: ratio of TT activity to APTT activity
Protocol: For the measurement of TT, 100 μl of the blood plasma and 100 μl of each sample having varied concentration were put into a measuring cup and incubated at 37° C. for 1 minute. Thereafter, 100 μl of thrombin (10 U/ml) incubated in advance at 37° C. was added thereto, and the period of time from this point until generation of coagulation was measured using the blood coagulation automatic measuring apparatus. In Table 2, the final concentration of each of the inventive substance and standard heparin in the medium, by which the TT value becomes 100 seconds, was obtained to calculate the concentration of the standard heparin as percentage based on the concentration of the inventive substance, and this value (%) was used as the TT activity of the inventive substance.

[4] = Anticoagulation activity of the standard heparin; conditions: property of the standard heparin preparation
NSC-34 cells = experiment: Measurement of neural cell death inhibition activity; assay type: cell-based, mouse
Protocol: That is, culturing was carried out by adding 0.09 ml of serum-free DMEM medium containing 1×10^5 of NSC-34 cells (received from Dr. Cashman (Toronto University): a mouse motor neuron-derived cultured cell strain) to a 96 well multi-plate which had been treated with 0.1% polyethylene imine in advance. Two hours after culturing, 10 μl of 100, 1,000 or 10,000 μg/ml aqueous solution of the inventive substance was added to respective wells (the final concentration in the medium is 10, 100 or 1,000 μg/ml). Thereafter, culturing was continued for 46 hours, and the number of survived cells was measured by the MTT process using a hemocytometer. By comparing with the number of survived cells after 2 hours of the culturing, the number of dead cells after 48 hours of the culturing of a control in which the inventive substance was not added was defined as 100%, and the ratio of difference from the number of dead cells when the inventive substance was added (the number of cells rescued from the cell death) was calculated as percentage (FIG. 6).

[5] = test system: sialidase (homogenate of NSC-34 cells); experiment: Measurement of sialidase activity with [3H]GM2 substrate; assay type: biochemical, mouse
Protocol: Into a 15 ml capacity glass tube, 1 mg of GM2 ganglioside (manufactured by IATRON) was put, and dissolved by adding 0.8 ml of distilled water, followed by sonication. To the resulting solution, 0.1 ml of PdCl2 solution (a supernatant fraction obtained by adding PdCl2 to distilled water to a concentration of 25 mg/ml, followed by sonication for 30 minutes, and then centrifuging the mixture at 2,000×g) was added, followed by stirring. […]
After the incubation, this was mixed with 5 ml of distilled water, applied to Sep-pak C18 cartridge column (manufactured by Waters) and eluted with methanol (3 ml) and then with chloroform : methanol (1:1 (v/v), 3 ml). The eluate was applied to DEAE-Sephadex A-25 column (manufactured by Pharmacia: 1 ml resin, swelled with methanol) and eluted with chloroform:methanol (1:1 (v/v), 3 ml), and then the eluate was dried to measure and compare radioactivity by a liquid scintillation counter. Radioactivity of a control in which 10 μl of distilled water was added instead of the standard heparin or inventive-substance was defined as 100% (FIG. 7). […]

Row | Substance | LD50 (mice; intravenous injection) | LD50 (mice; oral administration) | LD50 (mice; subcutaneous or intraperitoneal administration) | APTT activity (blood plasma [1]) | APTT (3 μg/ml) (blood plasma [1]) | Neurite outgrowth promoting activity [2] | TT activity (blood plasma [3]) | TT activity/APTT activity (blood plasma [3]) | anticoagulation activity [4] | cells rescued from cell death (NSC-34 cells; 100 μg/ml aqueous solution added, NSC-34 cells) | activity to inhibit cell death and rescue the cells (NSC-34 cells; 100 and 1,000 μg/ml aqueous solution added, NSC-34 cells, 48 hours, MTT) | neurite outgrowth promoting activity in the survived cells (NSC-34 cells; survived NSC-34 cells) | sialidase inhibition activity compared with standard heparin ([5]; 10 μl of 10 μg/ml aqueous solution, 37° C., 1 hour (FIG. 7)) | sialidase inhibition activity compared with NeuAc2en ([5]; 10 μl of 10, 100 or 1,000 μg/ml aqueous solution (FIG. 8)) | neurite outgrowth promoting activity (in words, FIG. 3) [2]
1 | heparin | about 1,000 mg/kg | ≥ 5,000 mg/kg | ≥ 2,500 mg/kg |  |  |  |  |  |  |  |  |  |  |  | 
2 | heparin sodium salt [Standard heparin, reference compound] |  |  |  | 100% | 248 s | 15.0% | 100% | 1 | 160 IU/mg |  |  |  |  |  | 
3 | selectively 2-O-desulfated periodic acid oxidation-reduction heparin [Inventive substance] |  |  |  | 2% | 32 s | 29.7% | 0.37% | 0.185 |  | about half the number of cells is rescued from cell death | markedly inhibit cell death | neurite outgrowth promoting activity was observed | stronger activity to inhibit sialidase which degrades ganglioside than the standard heparin | stronger sialidase inhibition activity than that of NeuAc2en | sharp increase in the neurite outgrowth promoting activity
